Test results published in ChEMBL document CHEMBL3396963, “Scaffold hopping: exploration of acetanilide-containing uracil analogues as potential NNRTIs” (Bioorg Med Chem, 2015).
The source made the active and inactive calls. No cut-off for these calls is given here.

Target: T1, Human immunodeficiency virus type 1 reverse transcriptase (Human immunodeficiency virus 1, UniProt Q72547)
Assay: Inhibition of HIV1 recombinant wild type reverse transcriptase p66/p51 pre-incubated with compound before enzyme addition using poly(rA) template and measured after 40 mins by picogreen based spectrofluorometry
Conditions: not given

| Structure (SMILES) | Ki [µM] | IC50 [µM] |
| --- | --- | --- |
| Cc1cc(Br)cc(Cn2c(=O)ccn(CC(=O)Nc3ccccc3)c2=O)c1 |  | 12.1 |
| O=C(Cn1ccc(=O)n(Cc2cccc3ccccc23)c1=O)Nc1ccccc1Cl |  | 44.5 |
| Cc1cc(C)cc(Cn2c(=O)ccn(CC(=O)Nc3ccccc3Cl)c2=O)c1 |  | 15.7 |
| Cc1cc(C)cc(Cn2c(=O)ccn(CC(=O)Nc3cccc(C)c3C)c2=O)c1 |  | > 300 |
| Cn1c(=O)ccn(Cc2ccccc2OCC(=O)Nc2cccc(Cl)c2)c1=O | > 100 |  |
| O=C(Cn1ccc(=O)n(Cc2cc(Cl)cc(Cl)c2)c1=O)Nc1ccccc1Cl | 4.5 | 12.7 |
| Cc1cc(C)cc(Cn2c(=O)ccn(CC(=O)Nc3ccccc3C)c2=O)c1 |  | 68.8 |
| Cn1c(=O)ccn(Cc2ccccc2OCC(=O)Nc2ccc(Cl)cc2)c1=O | > 100 |  |

More lines, main results first:

| Ki [µM] | Structure (SMILES) | IC50 [µM] |
| --- | --- | --- |
| > 100 | Cn1c(=O)c(Cl)cn(Cc2ccccc2OCC(=O)Nc2ccccc2Cl)c1=O |  |
| > 100 | Cc1cn(Cc2ccccc2OCC(=O)Nc2ccccc2Cl)c(=O)n(C)c1=O |  |
| > 100 | Cn1c(=O)ccn(Cc2ccccc2OCC(=O)Nc2cc(Cl)ccc2Cl)c1=O |  |
| > 100 | CCCn1c(=O)ccn(Cc2ccccc2OCC(=O)Nc2ccccc2Cl)c1=O |  |

Test system: not listed separately
Assay: Selectivity index, ratio of CC50 for human MT4 cells to EC50 for HIV1 3B infected in human MT4 cells
Format: toxicity, cell-based
Conditions: HIV-1 3B infected MT4 cells, read-out: Ratio CC50/EC50

| Structure (SMILES) | selectivity ratio |
| --- | --- |
| Cc1cc(Br)cc(Cn2c(=O)ccn(CC(=O)Nc3ccccc3)c2=O)c1 | 17 |
| O=C(Cn1ccc(=O)n(Cc2cccc3ccccc23)c1=O)Nc1ccccc1Cl | 26 |
| Cc1cc(C)cc(Cn2c(=O)ccn(CC(=O)Nc3ccccc3Cl)c2=O)c1 | 17 |
| Cn1c(=O)c(Cl)cn(Cc2ccccc2OCC(=O)Nc2ccccc2Cl)c1=O | < 1 |
| Cc1cn(Cc2ccccc2OCC(=O)Nc2ccccc2Cl)c(=O)n(C)c1=O | < 1 |
| Cc1cc(C)cc(Cn2c(=O)ccn(CC(=O)Nc3cccc(C)c3C)c2=O)c1 | 8 |
| Cn1c(=O)ccn(Cc2ccccc2OCC(=O)Nc2cccc(Cl)c2)c1=O | < 1 |
| Cn1c(=O)ccn(Cc2ccccc2OCC(=O)Nc2cc(Cl)ccc2Cl)c1=O | < 1 |
| O=C(Cn1ccc(=O)n(Cc2cc(Cl)cc(Cl)c2)c1=O)Nc1ccccc1Cl | 10 |
| CCCn1c(=O)ccn(Cc2ccccc2OCC(=O)Nc2ccccc2Cl)c1=O | < 1 |
| Cc1cc(C)cc(Cn2c(=O)ccn(CC(=O)Nc3ccccc3C)c2=O)c1 | 38 |
| Cn1c(=O)ccn(Cc2ccccc2OCC(=O)Nc2ccc(Cl)cc2)c1=O | < 1 |

Target: Human immunodeficiency virus type 1 reverse transcriptase (Human immunodeficiency virus 1, UniProt Q72547, L100I)
Assay: Inhibition of HIV1 reverse transcriptase L100I mutant using radioactively-labeled […] substrate and activated DNA as template-primer complex
Conditions: not given

| Structure (SMILES) | Ki [µM] |
| --- | --- |
| O=C(Cn1ccc(=O)n(Cc2cc(Cl)cc(Cl)c2)c1=O)Nc1ccccc1Cl | 15.9 |

Test system: Human immunodeficiency virus 1
Assay: Antiviral activity against HIV1 3B infected in human MT4 cells assessed as inhibition of virus-induced cytopathogenic effect
Format: functional, organism-based
Conditions: Human immunodeficiency virus 1, 3B

| Structure (SMILES) | EC50 [µM] |
| --- | --- |
| Cc1cc(Br)cc(Cn2c(=O)ccn(CC(=O)Nc3ccccc3)c2=O)c1 | 2.01 |
| O=C(Cn1ccc(=O)n(Cc2cccc3ccccc23)c1=O)Nc1ccccc1Cl | 7.94 |
| Cc1cc(C)cc(Cn2c(=O)ccn(CC(=O)Nc3ccccc3Cl)c2=O)c1 | 1.71 |
| Cn1c(=O)c(Cl)cn(Cc2ccccc2OCC(=O)Nc2ccccc2Cl)c1=O | > 9.37 |
| Cc1cn(Cc2ccccc2OCC(=O)Nc2ccccc2Cl)c(=O)n(C)c1=O | > 14.8 |
| Cc1cc(C)cc(Cn2c(=O)ccn(CC(=O)Nc3cccc(C)c3C)c2=O)c1 | 35.8 |
| Cn1c(=O)ccn(Cc2ccccc2OCC(=O)Nc2cccc(Cl)c2)c1=O | > 288 |
| Cn1c(=O)ccn(Cc2ccccc2OCC(=O)Nc2cc(Cl)ccc2Cl)c1=O | > 29.5 |
| O=C(Cn1ccc(=O)n(Cc2cc(Cl)cc(Cl)c2)c1=O)Nc1ccccc1Cl | 3.26 |
| CCCn1c(=O)ccn(Cc2ccccc2OCC(=O)Nc2ccccc2Cl)c1=O | > 25.4 |
| Cc1cc(C)cc(Cn2c(=O)ccn(CC(=O)Nc3ccccc3C)c2=O)c1 | 7.68 |
| Cn1c(=O)ccn(Cc2ccccc2OCC(=O)Nc2ccc(Cl)cc2)c1=O | > 100 |

Test system: Human immunodeficiency virus 1
Assay: Antiviral activity against HIV1 3B expressing reverse transcriptase K103N/Y181C mutant infected in human MT4 cells assessed as inhibition of virus-induced cytopathogenic effect
Format: functional, organism-based
Conditions: not given

| Structure (SMILES) | inhibition |
| --- | --- |
| Cc1cc(Br)cc(Cn2c(=O)ccn(CC(=O)Nc3ccccc3)c2=O)c1 | inactive |
| O=C(Cn1ccc(=O)n(Cc2cccc3ccccc23)c1=O)Nc1ccccc1Cl | inactive |
| Cc1cc(C)cc(Cn2c(=O)ccn(CC(=O)Nc3ccccc3Cl)c2=O)c1 | inactive |
| Cc1cc(C)cc(Cn2c(=O)ccn(CC(=O)Nc3cccc(C)c3C)c2=O)c1 | inactive |
| O=C(Cn1ccc(=O)n(Cc2cc(Cl)cc(Cl)c2)c1=O)Nc1ccccc1Cl | inactive |
| Cc1cc(C)cc(Cn2c(=O)ccn(CC(=O)Nc3ccccc3C)c2=O)c1 | inactive |

Target: Human immunodeficiency virus type 1 reverse transcriptase (Human immunodeficiency virus 1, UniProt Q72547, G190A)
Assay: Inhibition of HIV1 reverse transcriptase G190A mutant using radioactively-labeled […] substrate and activated DNA as template-primer complex
Conditions: not given

| Structure (SMILES) | Ki [µM] |
| --- | --- |
| O=C(Cn1ccc(=O)n(Cc2cc(Cl)cc(Cl)c2)c1=O)Nc1ccccc1Cl | 20 |

Test system: Human immunodeficiency virus 1
Assay: Antiviral activity against HIV1 3B infected in human MT4 cells exposed to MT4 cell CC50 level of compound added after 1 to 25 hrs post virus infection following 1 hr virus adsorption period assessed as inhibition of virus production measured at 31 hrs post infection by p24 ELISA method
Format: functional, organism-based
Conditions: not given

| Structure (SMILES) | inhibition |
| --- | --- |
| Cc1cc(Br)cc(Cn2c(=O)ccn(CC(=O)Nc3ccccc3)c2=O)c1 | inactive |
| O=C(Cn1ccc(=O)n(Cc2cccc3ccccc23)c1=O)Nc1ccccc1Cl | inactive |
| Cc1cc(C)cc(Cn2c(=O)ccn(CC(=O)Nc3ccccc3Cl)c2=O)c1 | inactive |
| Cc1cc(C)cc(Cn2c(=O)ccn(CC(=O)Nc3cccc(C)c3C)c2=O)c1 | inactive |
| O=C(Cn1ccc(=O)n(Cc2cc(Cl)cc(Cl)c2)c1=O)Nc1ccccc1Cl | inactive |
| Cc1cc(C)cc(Cn2c(=O)ccn(CC(=O)Nc3ccccc3C)c2=O)c1 | inactive |

Target: Human immunodeficiency virus type 1 reverse transcriptase (Human immunodeficiency virus 1, UniProt Q72547, Y181C)
Assay: Inhibition of HIV1 reverse transcriptase Y181C mutant using radioactively-labeled […] substrate and activated DNA as template-primer complex
Conditions: not given

| Structure (SMILES) | Ki [µM] |
| --- | --- |
| O=C(Cn1ccc(=O)n(Cc2cc(Cl)cc(Cl)c2)c1=O)Nc1ccccc1Cl | 15.4 |

Test system: Human immunodeficiency virus 1
Assay: Antiviral activity against HIV1 3B infected in human MT4 cells exposed to MT4 cell CC50 level of compound added after 1 to 25 hrs post virus infection following 1 hr virus adsorption period assessed as assessed as inhibition of virus-induced cytopathogenic effect
Format: functional, organism-based
Conditions: not given

| Structure (SMILES) | inhibition |
| --- | --- |
| Cc1cc(Br)cc(Cn2c(=O)ccn(CC(=O)Nc3ccccc3)c2=O)c1 | inactive |
| O=C(Cn1ccc(=O)n(Cc2cccc3ccccc23)c1=O)Nc1ccccc1Cl | inactive |
| Cc1cc(C)cc(Cn2c(=O)ccn(CC(=O)Nc3ccccc3Cl)c2=O)c1 | inactive |
| Cc1cc(C)cc(Cn2c(=O)ccn(CC(=O)Nc3cccc(C)c3C)c2=O)c1 | inactive |
| O=C(Cn1ccc(=O)n(Cc2cc(Cl)cc(Cl)c2)c1=O)Nc1ccccc1Cl | inactive |
| Cc1cc(C)cc(Cn2c(=O)ccn(CC(=O)Nc3ccccc3C)c2=O)c1 | inactive |

Target: T1, Human immunodeficiency virus type 1 reverse transcriptase
Assay: Inhibition of HIV1 ribonuclease H pre-incubated with compound before enzyme addition using RNA/DNA heteroduplex and measured after 60 mins by picogreen based spectrofluorometry
Conditions: not given

| Structure (SMILES) | IC50 |
| --- | --- |
| Cc1cc(Br)cc(Cn2c(=O)ccn(CC(=O)Nc3ccccc3)c2=O)c1 | Not Active |
| O=C(Cn1ccc(=O)n(Cc2cccc3ccccc23)c1=O)Nc1ccccc1Cl | Not Active |
| Cc1cc(C)cc(Cn2c(=O)ccn(CC(=O)Nc3ccccc3Cl)c2=O)c1 | Not Active |
| Cc1cc(C)cc(Cn2c(=O)ccn(CC(=O)Nc3cccc(C)c3C)c2=O)c1 | Not Active |
| Cc1cc(C)cc(Cn2c(=O)ccn(CC(=O)Nc3ccccc3C)c2=O)c1 | Not Active |

Same assay, conditions: read-out: IC50

| Structure (SMILES) | IC50 [µM] |
| --- | --- |
| O=C(Cn1ccc(=O)n(Cc2cc(Cl)cc(Cl)c2)c1=O)Nc1ccccc1Cl | 149 |

Target: Human immunodeficiency virus type 1 reverse transcriptase (Human immunodeficiency virus 1, UniProt Q72547, K103N)
Assay: Inhibition of HIV1 reverse transcriptase K103N mutant using radioactively-labeled […] substrate and activated DNA as template-primer complex
Conditions: not given

| Structure (SMILES) | Ki [µM] |
| --- | --- |
| O=C(Cn1ccc(=O)n(Cc2cc(Cl)cc(Cl)c2)c1=O)Nc1ccccc1Cl | 63.3 |

Test system: not listed separately
Assay: Cytotoxicity against human MT4 cells assessed as reduction in cell viability
Format: cell-based
Conditions: not given

| Structure (SMILES) | CC50 [µM] |
| --- | --- |
| Cc1cc(Br)cc(Cn2c(=O)ccn(CC(=O)Nc3ccccc3)c2=O)c1 | 33.1 |
| O=C(Cn1ccc(=O)n(Cc2cccc3ccccc23)c1=O)Nc1ccccc1Cl | 207 |
| Cc1cc(C)cc(Cn2c(=O)ccn(CC(=O)Nc3ccccc3Cl)c2=O)c1 | 28.5 |
| Cn1c(=O)c(Cl)cn(Cc2ccccc2OCC(=O)Nc2ccccc2Cl)c1=O | 9.37 |
| Cc1cn(Cc2ccccc2OCC(=O)Nc2ccccc2Cl)c(=O)n(C)c1=O | 14.8 |
| Cc1cc(C)cc(Cn2c(=O)ccn(CC(=O)Nc3cccc(C)c3C)c2=O)c1 | 276 |
| Cn1c(=O)ccn(Cc2ccccc2OCC(=O)Nc2cccc(Cl)c2)c1=O | 288 |
| Cn1c(=O)ccn(Cc2ccccc2OCC(=O)Nc2cc(Cl)ccc2Cl)c1=O | 29.5 |
| O=C(Cn1ccc(=O)n(Cc2cc(Cl)cc(Cl)c2)c1=O)Nc1ccccc1Cl | 31.1 |
| CCCn1c(=O)ccn(Cc2ccccc2OCC(=O)Nc2ccccc2Cl)c1=O | 25.4 |
| Cc1cc(C)cc(Cn2c(=O)ccn(CC(=O)Nc3ccccc3C)c2=O)c1 | 292 |
| Cn1c(=O)ccn(Cc2ccccc2OCC(=O)Nc2ccc(Cl)cc2)c1=O | 100 |

Target: Human immunodeficiency virus type 1 reverse transcriptase (Human immunodeficiency virus 1, UniProt Q72547, V106A)
Assay: Inhibition of HIV1 reverse transcriptase V106A mutant using radioactively-labeled […] substrate and activated DNA as template-primer complex
Conditions: not given

| Structure (SMILES) | Ki [µM] |
| --- | --- |
| O=C(Cn1ccc(=O)n(Cc2cc(Cl)cc(Cl)c2)c1=O)Nc1ccccc1Cl | 67.6 |

Target: Human immunodeficiency virus type 1 reverse transcriptase (Human immunodeficiency virus 1, UniProt Q72547, K103N/Y181C)
Assay: Inhibition of HIV1 reverse transcriptase K103N/Y181C mutant using radioactively-labeled […] substrate and activated DNA as template-primer complex
Conditions: not given

| Structure (SMILES) | Ki [µM] |
| --- | --- |
| O=C(Cn1ccc(=O)n(Cc2cc(Cl)cc(Cl)c2)c1=O)Nc1ccccc1Cl | 69.9 |
